Measurements: patent US20220177508A1, “C10-Cyclic Substituted 13-Membered Macrolides and Uses Thereof” (Zikani Therapeutics, Inc., priority 2018, published 2022)
≈ marks a conversion by molar mass, not a printed value.

Key:
Type in all cases: cell-based
A. baumannii MP-15 = experiment: Broth dilution MIC determination (CLSI), A. baumannii MP-15; conditions: Acinetobacter baumannii, MP15; strain MP-15, broth dilution; read-out: MIC A. baumanii MP-15
S. aureus MP-12 = experiment: Broth dilution MIC determination (CLSI), S. aureus MP-12; conditions: Staphylococcus aureus, MP12; strain MP-12, broth dilution
P. aeruginosa MP-3 = experiment: Broth dilution MIC determination (CLSI), P. aeruginosa MP-3; conditions: Pseudomonas aeruginosa, MP3; strain MP-3, broth dilution
K. pneumoniae MP-648 = experiment: Broth dilution MIC determination (CLSI), K. pneumoniae MP-648; conditions: Klebsiella pneumoniae, MP648; strain MP-648, broth dilution
E. coli MP-4 = experiment: Broth dilution MIC determination (CLSI), E. coli MP-4; conditions: Escherichia coli, MP4; strain MP-4, broth dilution; read-out: MIC E. coli MP-4
K. pneumoniae MP-546 = experiment: Broth dilution MIC determination (CLSI), K. pneumoniae MP-546; conditions: Klebsiella pneumoniae, MP546; strain MP-546, broth dilution

| SMILES | MIC (A. baumannii MP-15) [µg/mL] | MIC (S. aureus MP-12) [µg/mL] | MIC (P. aeruginosa MP-3) [µg/mL] | MIC (K. pneumoniae MP-648) [µg/mL] | MIC (E. coli MP-4) [µg/mL] | MIC (K. pneumoniae MP-546) [µg/mL] |
| --- | --- | --- | --- | --- | --- | --- |
| CO[C@]1(C)C[C@@H](C)CN(C)[C@H](C2CN(Cc3cccnc3)C2)COC(=O)C(C)(C)C(=O)[C@H](C)[C@H]1O[C@@H]1O[C@H](C)C[C@H](N(C)C)[C@H]1O [Compound 119, (3R,6R,8R,9R,10R)-9-(((2S,3R,4S,6R)-4-(dimethylamino)-3-hydroxy-6-methyltetrahydro-2H-pyran-2-yl)oxy)-8-methoxy-4,6,8,10,12,12-hexamethyl-3-(1-(pyridin-3-ylmethyl)azetidin-3-yl)-1-oxa-4-azacyclotridecane-11,13-dione] | > 32 | 4 to 32 (≈ 6.18 to 49.5 µM) | > 32 | 4 to 32 (≈ 6.18 to 49.5 µM) | < 4 | 4 to 32 (≈ 6.18 to 49.5 µM) |
| CO[C@]1(C)C[C@@H](C)CN(C)[C@H](C2CN(C(=O)CN(C)C)C2)[C@@H](C)OC(=O)C(C)(C)C(=O)[C@H](C)[C@H]1O[C@@H]1O[C@H](C)C[C@H](N(C)C)[C@H]1O [Compound 120, (2R,3R,6R,8R,9R,10R)-9-(((2S,3R,4S,6R)-4-(dimethylamino)-3-hydroxy-6-methyltetrahydro-2H-pyran-2-yl)oxy)-3-(1-(dimethylglycyl)azetidin-3-yl)-8-methoxy-2,4,6,8,10,12,12-heptamethyl-1-oxa-4-azacyclotridecane-11,13-dione] | > 32 | > 32 | > 32 | > 32 | 4 to 32 (≈ 6.11 to 48.9 µM) | 4 to 32 (≈ 6.11 to 48.9 µM) |
| CCN(C)CC(C)(C)CC(=O)N1CC([C@@H]2COC(=O)C(C)(C)C(=O)[C@H](C)[C@@H](O[C@@H]3O[C@H](C)C[C@H](N(C)C)[C@H]3O)[C@](C)(OC)C[C@@H](C)CN2C)C1 [Compound 122, (3R,6R,8R,9R,10R)-9-(((2S,3R,4S,6R)-4-(dimethylamino)-3-hydroxy-6-methyltetrahydro-2H-pyran-2-yl)oxy)-3-(1-(4-(ethyl(methyl)amino)-3,3-dimethylbutanoyl)azetidin-3-yl)-8-methoxy-4,6,8,10,12,12-hexamethyl-1-oxa-4-azacyclotridecane-11,13-dione] | > 32 | 4 to 32 (≈ 5.63 to 45 µM) | > 32 | 4 to 32 (≈ 5.63 to 45 µM) | < 4 | 4 to 32 (≈ 5.63 to 45 µM) |
| COCC(C)N1CCC([C@H]2COC(=O)C(C)(C)C(=O)[C@H](C)[C@@H](O[C@@H]3O[C@H](C)C[C@H](N(C)C)[C@H]3O)[C@](C)(OC)C[C@@H](C)CN2C)CC1 (stereo partly drawn) [Compound 124, (3S,6R,8R,9R,10R)-9-(((2S,3R,4S,6R)-4-(dimethylamino)-3-hydroxy-6-methyltetrahydro-2H-pyran-2-yl)oxy)-8-methoxy-3-(1-(1-methoxypropan-2-yl)piperidin-4-yl)-4,6,8,10,12,12-hexamethyl-1-oxa-4-azacyclotridecane-11,13-dione] | > 32 | 4 to 32 (≈ 6.1 to 48.8 µM) | > 32 | 4 to 32 (≈ 6.1 to 48.8 µM) | < 4 | < 4 |
| CO[C@]1(C)C[C@@H](C)CN(C)[C@H](C2CN(C(=O)CCN(C)CC(C)C)C2)COC(=O)C(C)(C)C(=O)[C@H](C)[C@H]1O[C@@H]1O[C@H](C)C[C@H](N(C)C)[C@H]1O [Compound 125, (3R,6R,8R,9R,10R)-9-(((2S,3R,4S,6R)-4-(dimethylamino)-3-hydroxy-6-methyltetrahydro-2H-pyran-2-yl)oxy)-3-(1-(3-(isobutyl(methyl)amino)propanoyl)azetidin-3-yl)-8-methoxy-4,6,8,10,12,12-hexamethyl-1-oxa-4-azacyclotridecane-11,13-dione] | > 32 | > 32 | > 32 | 4 to 32 (≈ 5.74 to 45.9 µM) | < 4 | 4 to 32 (≈ 5.74 to 45.9 µM) |
| CO[C@]1(C)C[C@@H](C)CN(C)[C@H](C2CN(C(=O)[C@H]3CCN(CC4CC4)C3)C2)COC(=O)C(C)(C)C(=O)[C@H](C)[C@H]1O[C@@H]1O[C@H](C)C[C@H](N(C)C)[C@H]1O [Compound 126, (3R,6R,8R,9R,10R)-3-(1-((S)-1-(cyclopropylmethyl)pyrrolidine-3-carbonyl)azetidin-3-yl)-9-(((2S,3R,4S,6R)-4-(dimethylamino)-3-hydroxy-6-methyltetrahydro-2H-pyran-2-yl)oxy)-8-methoxy-4,6,8,10,12,12-hexamethyl-1-oxa-4-azacyclotridecane-11,13-dione] | > 32 | 4 to 32 (≈ 5.66 to 45.3 µM) | > 32 | 4 to 32 (≈ 5.66 to 45.3 µM) | < 4 | 4 to 32 (≈ 5.66 to 45.3 µM) |

Second part, the molecule after the results:

| MIC (A. baumannii MP-15) [µg/mL] | MIC (S. aureus MP-12) [µg/mL] | MIC (P. aeruginosa MP-3) [µg/mL] | MIC (K. pneumoniae MP-648) [µg/mL] | MIC (E. coli MP-4) [µg/mL] | MIC (K. pneumoniae MP-546) [µg/mL] | SMILES |
| --- | --- | --- | --- | --- | --- | --- |
| > 32 | 4 to 32 (≈ 6.25 to 50 µM) | > 32 | 4 to 32 (≈ 6.25 to 50 µM) | < 4 | < 4 | CCCN1C[C@H](C)C[C@@](C)(OC)[C@H](O[C@@H]2O[C@H](C)C[C@H](N(C)C)[C@H]2O)[C@@H](C)C(=O)C(C)(C)C(=O)OC[C@H]1[C@H]1C[C@H](N(C)CC)C1 [Compound 94, (3R,6R,8R,9R,10R)-9-(((2S,3R,4S,6R)-4-(dimethylamino)-3-hydroxy-6-methyltetrahydro-2H-pyran-2-yl)oxy)-3-((1r,3R)-3-(ethyl(methyl)amino)cyclobutyl)-8-methoxy-6,8,10,12,12-pentamethyl-4-propyl-1-oxa-4-azacyclotridecane-11,13-dione] |
| > 32 | 4 to 32 (≈ 6.01 to 48.1 µM) | > 32 | 4 to 32 (≈ 6.01 to 48.1 µM) | < 4 | < 4 | CCCN1C[C@H](C)C[C@@](C)(OC)[C@H](O[C@@H]2O[C@H](C)C[C@H](N(C)C)[C@H]2O)[C@@H](C)C(=O)C(C)(C)C(=O)OC[C@H]1[C@H]1C[C@H](N(C)CC2CC2)C1 [Compound 95, (3R,6R,8R,9R,10R)-3-((1r,3R)-3-((cyclopropylmethyl)(methyl)amino)cyclobutyl)-9-(((2S,3R,4S,6R)-4-(dimethylamino)-3-hydroxy-6-methyltetrahydro-2H-pyran-2-yl)oxy)-8-methoxy-6,8,10,12,12-pentamethyl-4-propyl-1-oxa-4-azacyclotridecane-11,13-dione] |
| 4 to 32 (≈ 6.27 to 50.2 µM) | 4 to 32 (≈ 6.27 to 50.2 µM) | > 32 | 4 to 32 (≈ 6.27 to 50.2 µM) | < 4 | < 4 | CO[C@]1(C)C[C@@H](C)CN(C)[C@H](C2CN(CC3CCCC3)C2)COC(=O)C(C)(C)C(=O)[C@H](C)[C@H]1O[C@@H]1O[C@H](C)C[C@H](N(C)C)[C@H]1O [Compound 103, (3R,6R,8R,9R,10R)-3-(1-(cyclopentylmethyl)azetidin-3-yl)-9-(((2S,3R,4S,6R)-4-(dimethylamino)-3-hydroxy-6-methyltetrahydro-2H-pyran-2-yl)oxy)-8-methoxy-4,6,8,10,12,12-hexamethyl-1-oxa-4-azacyclotridecane-11,13-dione] |
| > 32 | 4 to 32 (≈ 6.27 to 50.2 µM) | > 32 | < 4 | < 4 | < 4 | CO[C@]1(C)C[C@@H](C)CN(C)[C@@H](C2CCN(CC3CC3)CC2)COC(=O)C(C)(C)C(=O)[C@H](C)[C@H]1O[C@@H]1O[C@H](C)C[C@H](N(C)C)[C@H]1O [Compound 108, (3S,6R,8R,9R,10R)-3-(1-(cyclopropylmethyl)piperidin-4-yl)-9-(((2S,3R,4S,6R)-4-(dimethylamino)-3-hydroxy-6-methyltetrahydro-2H-pyran-2-yl)oxy)-8-methoxy-4,6,8,10,12,12-hexamethyl-1-oxa-4-azacyclotridecane-11,13-dione] |
| > 32 | 4 to 32 (≈ 6 to 48 µM) | > 32 | 4 to 32 (≈ 6 to 48 µM) | 4 to 32 (≈ 6 to 48 µM) | 4 to 32 (≈ 6 to 48 µM) | CO[C@]1(C)C[C@@H](C)CN(C)[C@H](C2CN(C(=O)[C@@H]3CCN(C)C3)C2)COC(=O)C(C)(C)C(=O)[C@H](C)[C@H]1O[C@@H]1O[C@H](C)C[C@H](N(C)C)[C@H]1O [Compound 111, (3R,6R,8R,9R,10R)-9-(((2S,3R,4S,6R)-4-(dimethylamino)-3-hydroxy-6-methyltetrahydro-2H-pyran-2-yl)oxy)-8-methoxy-4,6,8,10,12,12-hexamethyl-3-(1-((R)-1-methylpyrrolidine-3-carbonyl)azetidin-3-yl)-1-oxa-4-azacyclotridecane-11,13-dione] |
| > 32 | 4 to 32 (≈ 6.39 to 51.1 µM) | > 32 | 4 to 32 (≈ 6.39 to 51.1 µM) | < 4 | < 4 | CO[C@]1(C)C[C@@H](C)CN(C)[C@H](C2CN(CC(C)(C)C)C2)COC(=O)C(C)(C)C(=O)[C@H](C)[C@H]1O[C@@H]1O[C@H](C)C[C@H](N(C)C)[C@H]1O [Compound 114, (3R,6R,8R,9R,10R)-9-(((2S,3R,4S,6R)-4-(dimethylamino)-3-hydroxy-6-methyltetrahydro-2H-pyran-2-yl)oxy)-8-methoxy-4,6,8,10,12,12-hexamethyl-3-(1-neopentylazetidin-3-yl)-1-oxa-4-azacyclotridecane-11,13-dione] |
| > 32 | 4 to 32 (≈ 6.18 to 49.5 µM) | > 32 | 4 to 32 (≈ 6.18 to 49.5 µM) | < 4 | 4 to 32 (≈ 6.18 to 49.5 µM) | CO[C@]1(C)C[C@@H](C)CN(C)[C@H](C2CN(Cc3ccccn3)C2)COC(=O)C(C)(C)C(=O)[C@H](C)[C@H]1O[C@@H]1O[C@H](C)C[C@H](N(C)C)[C@H]1O [Compound 115, (3R,6R,8R,9R,10R)-9-(((2S,3R,4S,6R)-4-(dimethylamino)-3-hydroxy-6-methyltetrahydro-2H-pyran-2-yl)oxy)-8-methoxy-4,6,8,10,12,12-hexamethyl-3-(1-(pyridin-2-ylmethyl)azetidin-3-yl)-1-oxa-4-azacyclotridecane-11,13-dione] |
